{"source": "patent US9789078B2", "about": "“Method of topically treating actinic keratosis with ingenol mebutate cycle therapy” (LEO Laboratories Limited, priority 2012, dated 2017)", "origin": "cited, not measured here", "conditions": "first treatment cycle, cited from earlier work", "note": "Where two headings read alike, the source gives them in different places."}
{"compound": "C/C=C(/C)C(=O)O[C@H]1C(C)=C[C@]23C(=O)[C@@H](C=C(CO)[C@@H](O)[C@]12O)[C@H]1[C@@H](C[C@H]3C)C1(C)C", "note": "[ingenol mebutate]", "values": [{"measurement": "time to resolution of local adverse events without sequelae", "setting": "topical application to the face or scalp", "result": "≤ 2", "unit": "weeks"}, {"measurement": "time to resolution of local adverse events without sequelae", "setting": "topical application to the trunk or extremities", "result": "≤ 4", "unit": "weeks"}]}
